Data from patent US7858741B2, “Stabilization of the collagen triple helix by O-methylation of hydroxyproline residues” (Wisconsin Alumni Research Foundation, priority 2008, dated 2010).
Where two headings read alike, the source gives them in different places. Marks after values point to notes of the source that are not given here. One block for each compound: values may come before it.

Experiments:
[1] = cited from earlier work
[2] = cited from earlier work; remark: listed apart in the source
[3] = cited from earlier work; for ΔG: values from Nishi et al. (2005) (Kobayashi and coworkers); for ΔG / TΔS / ΔH: normalized to T°=71.9° C.; for TΔS / ΔH: values from Nishi et al. (2005)
[4] = Sakakibara et al. (1973); cited from earlier work
[5] = Differential scanning calorimetry (DSC) of triple-helix unfolding; type: physicochemical; settings: for Tm (DSC exotherm maxima): scan rate 15° C./h; for TΔS / ΔG / ΔH: DSC
Method: DSC measurements were conducted on a VP-DSC instrument (MicroCal, LLC, Northampton, Mass.). For each peptide, an instrument baseline was established by filling both the sample and the reference cell with degassed 50 mM HOAc(aq) (pH 2.9) and scanning from 5-98° C. at 15° C./h until at least 3 consecutive overlaying scans were observed. The last of these scans was used as the baseline for each subsequent peptide scan.
Peptide solutions (˜0.5 mg/mL in 50 mM HOAc(aq)), incubated at 4° C. for ≧48 h, were degassed and loaded into the sample cell (without removing the reference solution) during the cool down from the final baseline scan (at ˜15° C.). Samples were scanned from 5-98° C. at 15° C./h; the first scan of each sample was used in the analysis. […] Nevertheless, a second run with a fresh sample (incubated at 4° C. for ≧48 h) gave a trace that overlaid with the initial scan for both peptides.
After DSC measurements, peptide concentrations were determined by quantitative amino acid analysis (Scientific Research Consortium, Inc., St. Paul, Minn.). Peptide concentrations of 231 μM for (ProHypGly)10 and 129 μM for (ProMopGly)10 were calculated from the average of Gly and Pro content.
Data processing was done using the MicroCal software in the Origin 7 program (OriginLab Corp., Northampton, Mass.). For each sample, the appropriate reference scan was subtracted from the sample scan and the data were normalized to the monomer concentrations (determined above).
Values of ΔH (per mole of monomer) were obtained by direct integration of the DSC exotherms. Using ΔH and the exotherm maxima as the Tm (64.3° C. for (ProHypGly)10 and 73.8° C. for (ProMopGly)10), TΔS (at Tm) was calculated with the equation: Tm=ΔH/(ΔS+R·1n(0.75c^2)), where c is the concentration of monomeric peptide. (See Engel and Bäichinger P. Top. Curr. Chem. 247:7-33 (2005)). Values of ΔG were then calculated with the equation: ΔG=ΔH−TΔS. […] (See Nishi et. al. (2005)). The data of Kobayashi and coworkers were normalized to T°=71.9° C. (which is the T° for (ProProGly)10, i.e. where ΔG=0). Because our thermodynamic data for (ProMopGly)10 were determined at nearly the same temperature (73.8° C.), comparisons of the three peptides are meaningful.

[6] = Thermal denaturation of collagen triple helices by circular dichroism (Tm); type: physicochemical; settings: for Tm, water / Tm, EG(aq): circular dichroism, peptide 200 μM; for Tm, water: 50 mM HOAc (pH 3.0); for Tm, EG(aq): 2:1 EG/50 mM HOAc (pH 3.0)
Method: CD spectra were recorded with an Aviv 202SF circular dichroism spectrometer. Spectra were recorded on peptide solutions (100 μM in 50 mM HOAc (pH 2.9)) that had been incubated at ≦4° C. for ≧48 h in 1-nm increments with a 3-s averaging time, 1-nm bandpass, and 0.1-cm pathlength. Samples for thermal stability experiments were generated by incubating peptide solutions (200 μM) at 4° C. for ≧48 h. The solutions were then heated from 4° C. to 97° C. (for samples in 50 mM HOAc (aq) (pH 2.9)) or to 106° C. (for samples in 2:1 ethylene glycol/50 mM HOAc(aq)) at 3-° C. increments with a 5-min equilibration at each step. The ellipticity at 225 nm was monitored with a 5-s averaging time, 1-nm bandpass, and 0.1-cm pathlength. Values of Tm were determined by fitting the data to a two-state model. (See Becktel and Schellman Biopolymers 26:1859-1877 (1987)).

[7] = compared with (ProProGly)10 chains; Chopra and Ananthanarayanan (1982); cited from earlier work
[8] = Crystal structure conformation (main-chain dihedral angles, n→π* geometry); type: physicochemical; settings: crystalline Ac-Mop-OMe
Method: [^13CH3]Ac-Mop-OMe (10 mg) was dissolved in 1:1 CH2Cl2/hexanes (1 mL) and the solution was allowed to stand at room temperature in a loosely-capped vial. Slow evaporation afforded crystals suitable for X-ray analysis after ˜72 h (all solvent had evaporated).
A colorless crystal with approximate dimensions 0.49×0.41×0.23 mm^3 was selected under oil under ambient conditions and attached to the tip of a nylon loop. The crystal was mounted in a stream of cold N2 (g) at 100(2) K and centered in the X-ray beam by using a video camera.
The crystal evaluation and data collection were performed on a Bruker CCD-1000 diffractometer with Mo Kα (λ=0.71073 Å) radiation and the diffractometer-to-crystal distance of 4.9 cm.
The initial cell constants were obtained from three series of scans at different starting angles. Each series consisted of 20 frames collected at intervals of 0.3° in a 6° range about ω with the exposure time of 10 s per frame. A total of 69 reflections were obtained. The reflections were indexed successfully by an automated indexing routine built in the SMART program. The final cell constants were calculated from a set of 4805 strong reflections from the actual data collection.
Data were collected by using the full-sphere data collection routine. The reciprocal space was surveyed to the extent of a full sphere to a resolution of 0.80 Å. A total of 6155 data were harvested by collecting three sets of frames with 0.3° scans in ω and ? with an exposure time 10 s per frame. These highly redundant datasets were corrected for Lorentz and polarization effects. The absorption correction was based on fitting a function to the empirical transmission surface as sampled by multiple equivalent measurements. (Bruker-AXS. (2000-2003) SADABS V.2.05, SAINT V.6.22, SHELXTL V.6.10 & SMART 5.622 Software Reference Manuals. Bruker-AXS, Madison, Wis., USA.)
The systematic absences in the diffraction data were consistent for the space groups P21 and P21/m.
A successful solution by the direct methods provided most non-hydrogen atoms from the E-map. The remaining non-hydrogen atoms were located in an alternating series of least-squares cycles and difference Fourier maps. All non-hydrogen atoms were refined with anisotropic displacement coefficients. All hydrogen atoms were found in the difference map and refined independently. The absolute configuration was assigned from the known synthetic procedure.
The final difference Fourier map was featureless. The molecular diagram is drawn with 50% probability ellipsoids as depicted in FIG. 2.

[9] = value from Holmgen et al. Nature 392:666-667 (1998); cited from earlier work
[10] = mean values from two molecules in ref 18
[11] = values from Bretscher et al. (2001)
[12] = mean values for Hyp in 13 (Bella et al. 1994; Miles and Burjanadze 2001)

Compound: COC(=O)[C@@H]1C[C@@H](O)CN1C(C)=O [Ac-Hyp-OMe]
- φ [1, 10]: −57.0 °
- ψ [1, 10]: 150.8 °
- ω [1, 10]: −178.8 °
- Kt/c [2, 11]: 6.1

Compound: (ProHypGly)10 [Peptide 1]
- ΔG [3]: −2.0^c kcal/mol
- ΔG ([3]; listed as (ProHypGly)10): -8.37 kJ/mol
- TΔS [3]: −33.2^c kcal/mol
- ΔH [3]: −35.2^c kcal/mol
- melting temperature of a triple helix [4]: 58 °C
- φ [1, 12]: −59.6 °
- ψ [1, 12]: 149.8 °
- ω [1, 12]: 178.5 °
- Tm (DSC exotherm maxima) ([5]; 50 mM HOAc): 64.3 °C
- TΔS ([5]; at 64.3° C.): -114 kJ/mol
- ΔG ([5]; at 64.3° C.): -9.2 kJ/mol
- ΔH ([5]; at 64.3° C.): -123 kJ/mol
- Kt/c ([2]; Hyp in 13 (triple helix)): ∞
- Tm, water [6]: 62.0 °C
- Tm, EG(aq) [6]: 77.1 °C
- rate at which chains fold into a triple helix [7]: substantially greater

Compound: (ProProGly)10
- T° (where ΔG=0) ([3]; data of Kobayashi and coworkers (Nishi et al. 2005)): 71.9 °C
- melting temperature of a triple helix [4]: 24 °C

- triple-helix stability compared with Hyp (or Mop) ([6]; in water, no value or method printed): less stable
Compound: (ProEopGly)10

- φ [8]: −58.1 ± 0.1 °
- ψ [8]: 147.7 ± 0.1 °
- ω [8]: −179.7 ± 0.1 °
- Oi-1...C′i=Oi angle ([8]; n→π* interaction): 94.6 °
- Oi-1...C′i=Oi distance ([8]; n→π* interaction): 2.84 Å
Compound: COC(=O)[C@@H]1C[C@@H](OC)CN1C(C)=O [Ac-Mop-OMe, N-(2-^13CH3-Acetyl)-(2S,4R)-4-methoxyproline methyl ester]

Compound: COC(=O)[C@@H]1C[C@@H](F)CN1C(C)=O [Ac-Flp-OMe]
- φ [1, 10]: −55.0 °
- ψ [1, 10]: 140.5 °
- ω [1, 10]: −178.9 °
- Kt/c [2, 11]: 6.7

Compound: (ProFlpGly)10 [Peptide 3]
- ΔG [3]: −3.3^c kcal/mol
- TΔS [3]: −17.2^c kcal/mol
- ΔH [3]: −20.5^c kcal/mol
- Tm, water [9]: 91^d ° C.

- Tm (DSC exotherm maxima) ([5]; 50 mM HOAc): 73.8 °C
- TΔS ([5]; at Tm 73.8° C., calculated from ΔH and Tm): -105 kJ/mol
- ΔH ([5]; per mole of monomer, 50 mM HOAc, at 73.8° C.): -117 kJ/mol
- ΔG ([5]; ΔG=ΔH−TΔS, at 73.8° C.): -11.3 kJ/mol
- stability of triple helix compared with triple helical peptide 1 ([6]; aqueous ethylene glycol): more stable
- Tm, water [6]: 70.1 °C
- Tm, EG(aq) [6]: 89.1 °C
Compound: (ProMopGly)10 [Peptide 2]
- conformational stability of triple helices compared with those of 1 ([6]; in water (50 mM HOAc)): substantially more conformational stability
